This note sets out measurements from patent US20060089378A1 (priority 2004, published 2006).

pEC50, pIC50: −log10 of the molar value. Like-named read-outs stand apart in the source and are kept apart here.

For one assay, the target named is CB1 receptor (human) (Homo sapiens, UniProt P21554). The assay can be described thus: cell-based. Particulars: for CB1 Receptor Functional Activity (change in functional activity, CRE β-gal): one compound concentration, β-galactosidase activity relative to vehicle treated cells.
The next assay concerns the target T1, CB2 receptor (human) (Homo sapiens, UniProt P34972).
T1 construct: expressed in transfected cells
In words: Functional cell-based assay, CB2 receptor mediated change in CRE β-gal expression (adenylate cyclase activity) in SK-N-MC cells.

For a further assay, the target named is T2, Cannabinoid CB2 Receptor (Homo sapiens, UniProt P34972).
T2 construct: expressed in transfected cells
The assay can be described thus: Binding assay for CB2 agonists or inverse agonists (radioligand competition, membranes of transfected SK-N-MC cells). In general terms: Displacement assays read how much labelled ligand stays bound in the presence of the test substance.

Another assay deals with T3, Cannabinoid CB1 Receptor (Homo sapiens, UniProt P21554).
T3 construct: expressed in transfected cells
The assay can be described thus: Binding assay for CB1 agonists or inverse agonists (radioligand competition, membranes of transfected SK-N-MC cells).

T1 sequence (P34972 whole entry): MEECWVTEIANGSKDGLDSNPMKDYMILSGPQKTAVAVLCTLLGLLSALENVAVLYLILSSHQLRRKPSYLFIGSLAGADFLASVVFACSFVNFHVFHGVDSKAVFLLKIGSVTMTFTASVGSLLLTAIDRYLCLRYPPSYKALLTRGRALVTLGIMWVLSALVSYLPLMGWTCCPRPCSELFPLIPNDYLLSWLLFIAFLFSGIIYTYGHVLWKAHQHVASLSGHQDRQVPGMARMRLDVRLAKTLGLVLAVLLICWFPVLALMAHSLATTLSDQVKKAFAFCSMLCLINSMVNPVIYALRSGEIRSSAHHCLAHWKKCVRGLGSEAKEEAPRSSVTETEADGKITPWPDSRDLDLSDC
T2 sequence (P34972 whole entry): as above
Sequence of CB1 receptor (human) (P21554 whole entry): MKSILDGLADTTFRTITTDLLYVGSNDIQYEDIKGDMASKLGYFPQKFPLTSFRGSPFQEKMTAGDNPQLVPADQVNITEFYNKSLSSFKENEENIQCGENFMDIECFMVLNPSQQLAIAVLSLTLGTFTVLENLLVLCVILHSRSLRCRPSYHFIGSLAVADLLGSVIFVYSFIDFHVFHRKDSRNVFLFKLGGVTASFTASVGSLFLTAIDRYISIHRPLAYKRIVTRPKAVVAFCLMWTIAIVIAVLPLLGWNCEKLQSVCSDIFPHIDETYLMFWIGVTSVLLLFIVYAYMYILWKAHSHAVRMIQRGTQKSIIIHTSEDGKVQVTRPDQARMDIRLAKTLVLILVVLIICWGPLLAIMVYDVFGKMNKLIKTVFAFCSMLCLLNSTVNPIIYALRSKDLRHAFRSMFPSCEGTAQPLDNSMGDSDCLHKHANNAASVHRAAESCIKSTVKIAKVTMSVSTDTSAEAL
T3 sequence (P21554 whole entry): as above

On to `COC(=O)N1CCc2c(c(C(=O)NC3C4(C)CCC(C4)C3(C)C)nn2Cc2ccccc2)C1` (stereo not drawn) [Cpd 106, 1-benzyl-3-(1,3,3-trimethyl-bicyclo[2.2.1]hept-2-ylcarbamoyl)-1,4,6,7-tetrahydro-pyrazolo[4,3-c]pyridine-5-carboxylic acid methyl ester], for which the pEC50 at CB1 receptor (human) was 5.05; at CB2 receptor (human) it was 9.10. Besides, the pIC50 was 8.70 at Cannabinoid CB2 Receptor and 6.70 on Cannabinoid CB1 Receptor.

Turning to `CCOC(=O)N1CCc2c(c(C(=O)NC3C4(C)CCC(C4)C3(C)C)nn2Cc2ccccc2)C1` (stereo not drawn) [Cpd 107, 1-benzyl-3-(1,3,3-trimethyl-bicyclo[2.2.1]hept-2-ylcarbamoyl)-1,4,6,7-tetrahydro-pyrazolo[4,3-c]pyridine-5-carboxylic acid ethyl ester], the “CB1 Receptor Functional Activity (change in functional activity, CRE β-gal)” value on CB1 receptor (human) is reported as −6%. The same compound had a pEC50 at CB2 receptor (human) of 8.22. In addition, the pIC50 on Cannabinoid CB2 Receptor was 8.52; at Cannabinoid CB1 Receptor, 7.00.

As for `CC(C)(C)OC(=O)N1CCc2c(c(C(=O)NC3C4(C)CCC(C4)C3(C)C)nn2C2CCCCC2)C1` (stereo not drawn) [Cpd 117, 1-cyclohexyl-3-(1,3,3-trimethyl-bicyclo[2.2.1]hept-2-ylcarbamoyl)-1,4,6,7-tetrahydro-pyrazolo[4,3-c]pyridine-5-carboxylic acid tert-butyl ester], the “CB1 Receptor Functional Activity (change in functional activity, CRE β-gal)” value at CB1 receptor (human) is −10%. Further, the pEC50 at CB2 receptor (human) (SK-N-MC cells expressing CRE β-gal and human CB2, forskolin, β-galactosidase activity, varying compound concentrations, read-out: CB2 Receptor Functional Inverse Agonist EC50) was 7.05. The pIC50 at Cannabinoid CB2 Receptor is 8.00; at Cannabinoid CB1 Receptor it was 4.93.

Turning to `COC(=O)N1CCc2c(c(C(=O)NC3C4(C)CCC(C4)C3(C)C)nn2C2CCCCC2)C1` (stereo not drawn) [Cpd 119, 1-cyclohexyl-3-(1,3,3-trimethyl-bicyclo[2.2.1]hept-2-ylcarbamoyl)-1,4,6,7-tetrahydro-pyrazolo[4,3-c]pyridine-5-carboxylic acid methyl ester], the pEC50 at CB1 receptor (human) was 6.70; on CB2 receptor (human), 7.70. Also, the pIC50 was 7.05 at Cannabinoid CB2 Receptor and 6.70 on Cannabinoid CB1 Receptor.

As to `CCOC(=O)N1CCc2c(c(C(=O)NC3C4(C)CCC(C4)C3(C)C)nn2C2CCCCC2)C1` (stereo not drawn) [Cpd 120, 1-cyclohexyl-3-(1,3,3-trimethyl-bicyclo[2.2.1]hept-2-ylcarbamoyl)-1,4,6,7-tetrahydro-pyrazolo[4,3-c]pyridine-5-carboxylic acid ethyl ester], the pEC50 at CB1 receptor (human) is 7.70; on CB2 receptor (human), 7.30. The pIC50 was 7.70 at Cannabinoid CB2 Receptor and 6.30 on Cannabinoid CB1 Receptor.

`Cc1ccc(S(=O)(=O)N2CCc3c(c(C(=O)NC4C5(C)CCC(C5)C4(C)C)nn3C3CCCCC3)C2)cc1` (stereo not drawn) [Cpd 124, 1-cyclohexyl-5-(toluene-4-sulfonyl)-4,5,6,7-tetrahydro-1H-pyrazolo[4,3-c]pyridine-3-carboxylic acid (1,3,3-trimethyl-bicyclo[2.2.1]hept-2-yl)-amide] had a pEC50 on CB2 receptor (human) of 7.52. Also, the pIC50 on Cannabinoid CB2 Receptor was 7.70; at Cannabinoid CB1 Receptor, 5.82.

For `CC12CCC(C1)C(C)(C)C2NC(=O)c1nn(C2CCCCC2)c2c1CN(S(C)(=O)=O)CC2` (stereo not drawn) [Cpd 133, 1-cyclohexyl-5-methanesulfonyl-4,5,6,7-tetrahydro-1H-pyrazolo[4,3-c]pyridine-3-carboxylic acid (1,3,3-trimethyl-bicyclo[2.2.1]hept-2-yl)-amide], at CB1 receptor (human), the pEC50 was 6.14. In addition, the “change in functional activity” value on CB2 receptor (human) (CB2 section, one compound concentration, relative to vehicle treated cell activity (100%)) is listed as −29%. Besides, the values for the pIC50 at Cannabinoid CB2 Receptor and at Cannabinoid CB1 Receptor were 6.52 and 6.40, respectively.

As a reminder, the pEC50 is −log10 of the EC50, conventionally taken in molar units. For orientation: pIC50 means −log10 of the IC50, conventionally taken in molar units.
